Measurements as given in patent US20260248936A1, “NOVEL LINKER COMPOUND AND LIGAND-DRUG CONJUGATE THEREFOR” (priority 2022, published 2026).
Numbered stars: 1 amine (or outer) side, 2 acyl side, 3 side chain; on linkers, the order of the positions; unused ones are H or OH. Square brackets hold non-standard residues; d marks the D form. Peptide text beside a SMILES is read from it. * marks the point of attachment. ξ: configuration not given here. X2 = C#CCC(OC(=O)*)c1ccc(O[C@@H]2O[C@H](CO)[C@H](O)[C@H](O)[C@H]2O)c2cc(C(=O)O)oc12; X3 = C#CCC(OC(=O)*)c1ccc(O[C@@H]2O[C@H](CO)[C@H](O)[C@H](O)[C@H]2O)c2cc(C(=O)O)sc12; X1 = O=C(O)CCc1cc2c(O[C@@H]3O[C@H](CO)[C@H](O)[C@H](O)[C@H]3O)ccc(COC(=O)*)c2s1; Dil(5ξ) = CCC(C)[C@@H]([C@@H](CC(=O)[*:2])OC)N(C)[*:1]; Dolaproine = CO[C@@H]([C@@H]1CCCN1)[C@@H](C)C(=O)O; NMeV = CN[C@H](C(=O)O)C(C)C; ξF = NC(Cc1ccccc1)C(=O)O

What was measured:
[1] = Chemical stability in PBS buffer solution (pH 7.4); format: physicochemical; details: PBS buffer solution pH 7.4, 37° C., HPLC; read-out: Chemical stability t1/2
Protocol: The compounds of the present invention (A-5, A-8, A-9, A-11, A-12, A-14, A-15, A-16, A-19, A-23, A-24, A-35 and A-36) were each dissolved in DMSO to a concentration of 10 mM and then mixed with a PBS buffer solution (pH 7.4) to prepare as a solution having a concentration of 500 μM (5% DMSO). MPS, used as a standard substance, was also prepared as a solution having a concentration of 500 μM in a PBS buffer solution. 420 μL of a PBS buffer solution and 140 μL of each of 500 μM compounds of the present invention and MPS were mixed to prepare a total of 700 μL of reaction solution. The reaction of the mixed solution was initiated in a constant temperature incubator at 37° C. The reaction solution was aliquoted in an amount of 70 μL at 0 minutes before the reaction and at certain times after the reaction, and the remaining compounds of the present invention or MPS or the liberated MMAF were quantitatively analyzed using the HPLC method. […] In addition, the remaining amount of Compound A-19 in a PBS buffer solution (pH 7.4) according to the incubation time is shown in FIG. 4.

Human plasma stability = format: in vitro ADME; details: Method 2 (human plasma), 37° C., read-out: Plasma stability t1/2
Protocol: Method 2: Human Plasma Stability
(§1) The compounds of the present invention (A-8, A-9, A-14, A-19, A-35, A-36) and MPS, used as a standard substance, were each dissolved in DMSO and a PBS buffer solution to a concentration of 30 mM, and then mixed in human plasma (Biochemed, 752PR—SC-PMG) to a final concentration of 300 μM (final 1.0% DMSO) and 600 μM of the compounds and MPS, respectively. The reaction of the mixed solution in plasma was initiated in a constant temperature incubator at 37° C. Before the reaction and on certain days after the reaction, the above samples were aliquoted in an amount of 100 μL, and 200 μL of ACN was added to terminate the reaction, mixed, and then vortexed for about 1 minute, and then centrifuged at 4° C. for 15 minutes at 14,000 rpm to precipitate plasma proteins. Each supernatant obtained by centrifugation was collected and quantitatively analyzed using the HPLC method.
(§2) The results of measuring the plasma half-life of the compounds of the present invention using Methods 1 to 4 above are shown in Table 3.

Mouse plasma stability = format: in vitro ADME; details: Method 1 (mouse plasma), 37° C., read-out: Plasma stability t1/2
Protocol: Method 1: Mouse Plasma Stability
as §1, with “(A-5,” for “(A-8,”, “mouse” for “human”, “029-APSC-PMG)” for “752PR—SC-PMG)”, “acetonitrile (ACN, Sigma, SA-271004-1L)” for “ACN”, “centrifuged (Beckman, B30150)” for “centrifuged”
as §2

Rat plasma stability = format: in vitro ADME; details: Method 3 (rat plasma), 37° C., read-out: Plasma stability t1/2
Protocol: Method 3: Rat Plasma Stability
as §1, with “(A-19,” for “(A-8, A-9, A-14, A-19, A-35,”, “rat” for “human”, “031-APSC-PMG)” for “752PR—SC-PMG)”
as §2

[2] = Beagle dog plasma stability; format: in vitro ADME; details: Method 4 (beagle dog plasma), 37° C., read-out: Plasma stability t1/2
Protocol: Method 4: Beagle Dog Plasma Stability
as §1, with “(A-19,” for “(A-8, A-9, A-14, A-19, A-35,”, “beagle dog” for “human”, “014-APSC-PMG)” for “752PR—SC-PMG)”
as §2

SMILES	half-life at 100 µM [1] [h]	half-life at 300 µM (Human plasma stability) [h]	half-life at 300 µM (Mouse plasma stability) [h]	half-life at 300 µM (Rat plasma stability) [h]	half-life at 300 µM [2] [h]
C#CCC(OC(=O)N(C)[C@H](C(=O)N[C@H](C(=O)N(C)[C@@H](C(C)CC)[C@@H](CC(=O)N1CCC[C@H]1[C@H](OC)[C@@H](C)C(=O)NC(Cc1ccccc1)C(=O)O)OC)C(C)C)C(C)C)c1ccc(O[C@@H]2O[C@H](CO)[C@H](O)[C@H](O)[C@H]2O)c2cc(CCCC(=O)O)oc12 (some centres unmarked) [Compound A-16]	> 168	–	–	–	–
C#CCC(OC(=O)N(C)[C@H](C(=O)N[C@H](C(=O)N(C)[C@@H](C(C)CC)[C@@H](CC(=O)N1CCC[C@H]1[C@H](OC)[C@@H](C)C(=O)NC(Cc1ccccc1)C(=O)O)OC)C(C)C)C(C)C)c1ccc(O[C@@H]2O[C@H](CO)[C@H](O)[C@H](O)[C@H]2O)c2cc(CCC(=O)O)sc12 (some centres unmarked) [Compound A-12]	> 168	–	–	–	–
C#CCC(OC(=O)N(C)[C@H](C(=O)N[C@H](C(=O)N(C)[C@@H](C(C)CC)[C@@H](CC(=O)N1CCC[C@H]1[C@H](OC)[C@@H](C)C(=O)NC(Cc1ccccc1)C(=O)O)OC)C(C)C)C(C)C)c1ccc(O[C@@H]2O[C@H](CO)[C@H](O)[C@H](O)[C@H]2O)c2cc(COC(=O)N(C)[C@H](C(=O)N[C@H](C(=O)N(C)[C@@H](C(C)CC)[C@@H](CC(=O)N3CCC[C@H]3[C@H](OC)[C@@H](C)C(=O)NC(Cc3ccccc3)C(=O)O)OC)C(C)C)C(C)C)oc12 (some centres unmarked) [Compound A-35]	> 168	> 168	> 168	–	–
CCC(C)[C@@H]([C@@H](CC(=O)N1CCC[C@H]1[C@H](OC)[C@@H](C)C(=O)NC(Cc1ccccc1)C(=O)O)OC)N(C)C(=O)[C@@H](NC(=O)[C@H](C(C)C)N(C)C(=O)OCc1ccc(O[C@@H]2O[C@H](CO)[C@H](O)[C@H](O)[C@H]2O)c2cc(CCC(=O)O)sc12)C(C)C (some centres unmarked) [Compound A-5] (X1-[NMeV]V[Dil(5ξ)][Dolaproine][ξF]-OH)	> 168	–	> 168	–	–
C#CCC(OC(=O)N(C)[C@H](C(=O)N[C@H](C(=O)N(C)[C@@H](C(C)CC)[C@@H](CC(=O)N1CCC[C@H]1[C@H](OC)[C@@H](C)C(=O)N[C@H](C)[C@@H](O)c1ccccc1)OC)C(C)C)C(C)C)c1ccc(O[C@@H]2O[C@H](C(=O)O)[C@H](O)[C@H](O)[C@H]2O)c2cc(CCC(=O)O)[se]c12 (some centres unmarked) [Compound A-36]	> 168	> 168	> 168	> 168	> 168
CCC(C)[C@@H]([C@@H](CC(=O)N1CCC[C@H]1[C@H](OC)[C@@H](C)C(=O)NC(Cc1ccccc1)C(=O)O)OC)N(C)C(=O)[C@@H](NC(=O)[C@H](C(C)C)N(C)C(=O)OCc1cc2c(O[C@@H]3O[C@H](CO)[C@H](O)[C@H](O)[C@H]3O)ccc(COC(=O)N(C)[C@H](C(=O)N[C@H](C(=O)N(C)[C@@H](C(C)CC)[C@@H](CC(=O)N3CCC[C@H]3[C@H](OC)[C@@H](C)C(=O)NC(Cc3ccccc3)C(=O)O)OC)C(C)C)C(C)C)c2o1)C(C)C (some centres unmarked) [Compound A-24]	> 168	–	–	–	–
C#CCC(OC(=O)N(C)[C@H](C(=O)N[C@H](C(=O)N(C)[C@@H](C(C)CC)[C@@H](CC(=O)N1CCC[C@H]1[C@H](OC)[C@@H](C)C(=O)NC(Cc1ccccc1)C(=O)O)OC)C(C)C)C(C)C)c1ccc(O[C@@H]2O[C@H](CO)[C@H](O)[C@H](O)[C@H]2O)c2cc(C(=O)O)sc12 (some centres unmarked) [Compound A-11] (X3-[NMeV]V[Dil(5ξ)][Dolaproine][ξF]-OH)	> 168	–	–	–	–
C#CCC(OC(=O)N(C)[C@H](C(=O)N[C@H](C(=O)N(C)[C@@H](C(C)CC)[C@@H](CC(=O)N1CCC[C@H]1[C@H](OC)[C@@H](C)C(=O)NC(Cc1ccccc1)C(=O)O)OC)C(C)C)C(C)C)c1ccc(O[C@@H]2O[C@H](CO)[C@H](O)[C@H](O)[C@H]2O)c2cc(C(=O)O)oc12 (some centres unmarked) [Compound A-15] (X2-[NMeV]V[Dil(5ξ)][Dolaproine][ξF]-OH)	> 168	–	–	–	–
CCC(C)[C@@H]([C@@H](CC(=O)N1CCC[C@H]1[C@H](OC)[C@@H](C)C(=O)NC(Cc1ccccc1)C(=O)O)OC)N(C)C(=O)[C@@H](NC(=O)[C@H](C(C)C)N(C)C(=O)OCc1ccc(O[C@@H]2O[C@H](CO)[C@H](O)[C@H](O)[C@H]2O)c2cc(Cn3cc(COCCOCCOCCOC)nn3)sc12)C(C)C (some centres unmarked) [Compound A-8]	> 168	> 168	–	–	–
